From article PMC12622802, “Potent kinase inhibitors from the Merck KGaA OGHL: Novel hits against Trypanosoma brucei with potential for repurposing” (PLOS Neglected Tropical Diseases, 2025)
Entries after “also recorded” stand apart in the source; their conditions may differ. Like-named read-outs stand apart in the source and are kept apart here.

What was measured:
[1] = tested on: bloodstream forms of T. b. brucei Lister 427; assay: Resazurin reduction growth inhibition assay against bloodstream forms of T. b. brucei; assay type: cell-based, Trypanosoma brucei brucei; conditions: read-out: IC50 ± SD (µM) T. b. b.
Experimental: Bloodstream forms of T. b. brucei Lister 427, a virulent laboratory strain of Trypanosoma brucei were cultured in HMI-9 medium as previously described. […] The resulting signal measured between 570 nm and 590 nm, is directly proportional to the quantity of viable parasites. […] After incubation, a working solution of resazurin (0.15 mg/mL in DPBS) was added to the plates in a 1:10 (v/v) ratio, followed by incubation for 4 hours at 37 °C with 5% CO2. Fluorescence was measured using an Infinite M200 microplate reader (Tecan) at excitation and emission wavelengths of 530 nm and 590 nm, respectively. Compound achieving ≥ 50% inhibition of trypanosomes were selected for further dose-response studies.
Compounds that adhered to the cutoff criterion (≥ 50% inhibition) were serially diluted and tested for their half-maximal inhibitory concentrations (IC50). […] Dose-response curves were generated using GraphPad Prism software (version 8.0). […]
Data were analysed using Microsoft Excel and GraphPad Prism 8.0. Nonlinear regression with a sigmoidal dose-response fit model was applied to the data to determine IC50 and CC50 values.

[2] = Cytotoxicity, resazurin reduction assay, HepG2; assay type: cell-based, human; conditions: human
Experimental: (§1) Vero E6 (African green monkey kidney), Raw264.7 (murine macrophages) and HepG2 (human hepatocyte carcinoma) cell lines, sourced from the American Type Culture Collection, were cultured in DMEM supplemented with 10% (v/v) heat-inactivated fetal bovine serum, 1% (v/v) non-essential amino acids, and 1% (v/v) penicillin-streptomycin. Cells were maintained at 37 °C in a 5% CO2 atmosphere. For cytotoxicity testing, they were seeded (90 µL) in 96-well plates at a density of 1x10^4 cells/well, in duplicate, and allowed to adhere overnight. Serial dilutions (50-0.08 µM) of the compounds were prepared, and 10 µL of each were incubated with the monolayer for 48 hours. Podophyllotoxin was tested as a positive control at 10 μM and 0.5% DMSO (100% cell viability) was used as negative control. Cell viability was then assessed using the resazurin reduction assay, as described above. The 50% cytotoxic concentration (CC50) was calculated using GraphPad Prism software (version 8.0), and selectivity indices (SIs) were determined by dividing the […].
(§2) Data were analysed using Microsoft Excel and GraphPad Prism 8.0. Nonlinear regression with a sigmoidal dose-response fit model was applied to the data to determine IC50 and CC50 values. Results represent the mean ± standard deviation (SD) from two independent experiments performed in duplicate.

[3] = Cytotoxicity, resazurin reduction assay, Raw264.7; assay type: cell-based, murine; conditions: mouse
Experimental: (§3) For cytotoxicity testing, they were seeded (90 µL) in 96-well plates at a density of 1x10^4 cells/well, in duplicate, and allowed to adhere overnight. […] Cell viability was then assessed using the resazurin reduction assay, as described above. […] Data were analysed using Microsoft Excel and GraphPad Prism 8.0. Nonlinear regression with a sigmoidal dose-response fit model was applied to the data to determine IC50 and CC50 values. Results represent the mean ± standard deviation (SD) from two independent experiments performed in duplicate.

[4] = Cytotoxicity, resazurin reduction assay, Vero; assay type: cell-based; conditions: African green monkey
Experimental: as §3

[5] = tested on: bloodstream forms of T. b. brucei; assay: Trypanosome killing kinetics (time-kill assay); assay type: cell-based, Trypanosoma brucei brucei; conditions: for activity profile in time-kill assay (trypanocidal or cytostatic): 8IC50, 4IC50, IC50, 0.25IC50, over 72 hours
Experimental: (§4) To evaluate the killing kinetics of selected compounds, bloodstream forms of T. b. brucei (2 x 10⁵ cells/mL) were incubated in normal culture conditions in the presence of compounds at 8IC50, 4IC50, IC50, and 0.25IC50 concentrations in 24-well plates. Upon incubation, cultures were centrifuged at 0, 4, 8, 12, 24, 30, 36, 48, 60, and 72 hours’ time intervals at 2,500 rpm followed by motile trypanosomes enumeration using a Lumascope LS520 inverted microscope. To determine the mode of inhibition (parasitostatic or parasiticidal), a rescue experiment was conducted. Trypanosomes were exposed to the test doses (8IC50, 4IC50, IC50, and 0.25IC50) of the compounds for 4 hours. They were then washed three times with phosphate buffer saline (DPBS 1X), centrifuged at 2,500 rpm for 7 minutes, and resuspended in complete drug-free medium. These parasites were cultured under the same conditions, and motile organisms were enumerated with the Neubauer chamber at regular intervals over 72 hours. Data were plotted using GraphPad Prism 8.0 to determine the inhibition kinetics and classify the inhibitors as cidal or static. Pentamidine isethionate served as the reference compound and experiments were performed in duplicate.

[6] = tested on: bloodstream forms of T. b. brucei; assay: Rescue experiment (4 h exposure, washout, drug-free medium); assay type: cell-based, Trypanosoma brucei brucei; conditions: 72 hours monitoring, 4xIC50 and 8xIC50
Experimental: as §4

[7] = molecular target: human CX3C motif chemokine receptor 1 (CX3CR1); parameters: method as in printed; conditions: known human target; ref not given; cited from earlier work
[8] = tested on: HepG2 (human hepatocyte carcinoma) cells; assay: Cytotoxicity, resazurin reduction assay, HepG2; assay type: cell-based
Experimental: as §1, §2

[9] = molecular target: focal adhesion kinase (FAK); parameters: method as in ref 31 = [31]; 31 Garcia-Echeverria C , Kanazawa T , Kawahara E , Masuya K , Matsuura N , Miyake T . 2, 4-pyrimidinediamines useful in the treatment of neoplastic diseases, inflammatory and immune system disorders .; conditions: cited from earlier work
[10] = molecular target: anaplastic lymphoma kinase (ALK); parameters: method as in ref 31 = [31]; 31 Garcia-Echeverria C , Kanazawa T , Kawahara E , Masuya K , Matsuura N , Miyake T . 2, 4-pyrimidinediamines useful in the treatment of neoplastic diseases, inflammatory and immune system disorders .; conditions: cited from earlier work
[11] = tested on: insulin-like growth factor 1 (IGF-1R); parameters: method as in ref 31 = [31]; 31 Garcia-Echeverria C , Kanazawa T , Kawahara E , Masuya K , Matsuura N , Miyake T . 2, 4-pyrimidinediamines useful in the treatment of neoplastic diseases, inflammatory and immune system disorders .; conditions: cited from earlier work
[12] = molecular target: leucine-rich repeat kinase 2 (LRRK2); parameters: method as in ref 31 = [31]; 31 Garcia-Echeverria C , Kanazawa T , Kawahara E , Masuya K , Matsuura N , Miyake T . 2, 4-pyrimidinediamines useful in the treatment of neoplastic diseases, inflammatory and immune system disorders .; conditions: cited from earlier work
[13] = Trypanosoma brucei, 72 h, confirmation screen, powdered form, 72 hours
[14] = Trypanosoma brucei, 72 h, primary screen, DMSO stock solution, bloodstream form T. b. brucei Lister 427, 72 hours
[15] = primary screen, DMSO stock solution, bloodstream form T. b. brucei Lister 427, 72 hours

Row | SMILES | IC50 [1, 14] | IC50 [1, 15] | CC50 at 48 h [2] | CC50 [8] | also measured
1 | CN(C)C(=O)/C=C/C(=O)c1ccc(SCc2ccc(Cl)cc2Cl)cc1 [OGHL00006, (E)-4-(4-((2,4-dichlorobenzyl)thio)phenyl)-N,N-dimethyl-4-oxobut-2-enamide] | ≤ 1 µM | 0.56 ± 0.001 µM | 17.5 ± 0.94 µM | – | IC50 [1, 13]: 0.6 ± 0.1 µM; CC50 at 48 h [3]: 2.2 ± 0.05 µM; CC50 at 48 h [4]: 1.2 ± 0.07 µM; activity profile in time-kill assay (trypanocidal or cytostatic) [5]: strong trypanocidal activity; effect after short exposure and washout (reversible or irreversible) [6]: irreversible trypanocidal activity; also recorded: irreversible trypanocidal effects; IC50 [7]: 0.526 µM
2 | Oc1ccc2[nH]cc(CCCCN3CC=C(c4ccccc4)CC3)c2c1 [OGHL00007] | – | 5.3 ± 0.7 µM | – | > 50 µM | –
3 | CCC(C)[S+]([O-])c1ccc(-c2nc3ccncc3[nH]2)c(OC)c1 (stereo not drawn) [OGHL00019] | – | 2.49 ± 0.1 µM | – | 19.8 ± 2.72 µM | –
4 | COc1ccc(C(=O)N2CCC(C)(C)c3cc(C4=NNC(=O)SC4C)ccc32)cc1OC (stereo not drawn) [OGHL00025] | 9.22 ± 0.0007 µM | – | 33.3 ± 2.83 µM | – | –
5 | CCN=C(c1ccc(OC)c(OC)c1)N1CCCc2cc(C3=NNC(=O)SC3C)ccc21 (stereo not drawn) [OGHL00032] | – | – | 48.43 ± 0.25 µM | – | IC50 ([1]; Trypanosoma brucei, 72 h): 5.04 ± 0.16 µM
6 | CN(CCCCc1ccc(F)cc1)CCC(=O)c1ccc2[nH]c(=O)oc2c1 [OGHL00087] | – | 8.62 ± 0.093 µM | – | 27.3 ± 4.5 µM | –
7 | CCCc1nn(C)c2c(=O)[nH]c(-c3cc(C(=O)N=C(N)N)ccc3OCC)nc12 [OGHL00103] | – | 7.8 ± 0.07 µM | – | 41.5 ± 3.4 µM | –
8 | CNC(=O)c1cc(Oc2ccc(NC(=O)Nc3cc(C(F)(F)F)ccc3-n3ccnc3)cc2)ccn1 [OGHL00130] | 3 µM | 3.05 ± 0.14 µM | 12.9 ± 0.5 µM | – | –
9 | CNS(=O)(=O)c1ccccc1Nc1nc(Nc2cc(OC)c(OC)cc2C)ncc1Br [OGHL00133, 2-((5-bromo-2-((4,5-dimethoxy-2-methylphenyl)amino)pyrimidin-4-yl)amino)-N-methylbenzenesulfonamide] | – | – | > 50 µM | – | IC50 [1, 13]: 0.007 ± 0.00073 µM; CC50 at 48 h [3]: 4.5 ± 0.1 µM; CC50 at 48 h [4]: 1.01 ± 0.09 µM; activity profile in time-kill assay (trypanocidal or cytostatic) [5]: cytostatic activity; effect after short exposure and washout (reversible or irreversible) [6]: reversible inhibitory effect; IC50 [9]: 0.0028 µM; IC50 [10]: 0.03 µM; IC50 [11]: < 0.08 µM; IC50 [12]: 0.00013 µM
10 | CNS(=O)(=O)c1ccccc1Nc1nc(Nc2ccc(N3CCOCC3)cc2OC)ncc1Br [OGHL00134] | 1.3 µM | 1.31 ± 0.22 µM | 22.1 ± 5.06 µM | – | –
11 | COc1cccc(CNc2nnc(-c3c[nH]c4ncccc34)o2)c1 [OGHL00138] | – | 1.55 ± 0.2 µM | – | 23.1 ± 3.57 µM | –
12 | CCOc1cc(CCNC(=O)C[C@H]2S[C@@H](c3ccc(C#Cc4ccccc4)cc3)N(c3cccc(C(N)=O)c3)C2=O)ccc1OC [OGHL00152] | 8.87 ± 0.7 µM | – | – | – | –
13 | Cc1ccccc1-c1ccc(-c2nc(-c3ccc(CN(C)CCC(=O)O)c(F)c3)no2)cc1OCC1CC1 [OGHL00165] | – | 8.83 ± 0.09 µM | – | > 50 µM | –
14 | CCOc1cc(CCNC(=O)C[C@H]2S[C@@H](c3ccc(C#Cc4ccccc4)cc3)N(c3cccc(C(N)=O)c3)C2=O)ccc1O [OGHL00183] | 9.64 ± 0.05 µM | – | 50 µM | – | –
15 | COc1nc(/C=C/c2nc3n(n2)CCCC3c2ccccc2C(F)(F)F)ccc1-n1cnc(C)c1 (stereo not drawn) [OGHL00208] | 7.53 ± 1.27 µM | – | 2.36 ± 0.52 µM | – | –
16 | COc1nc(/C=C/c2nc3n(n2)CCC[C@@H]3c2ccccc2C(F)(F)F)ccc1-n1cnc(C)c1 [OGHL00211] | 2.37 ± 0.22 µM | – | 5.94 ± 2.55 µM | – | –
17 | COc1ccc(OC)c(CCNC(=O)c2cn3cc(-c4cc(OC)ccc4OC)nc3s2)c1 [OGHL00225] | 9.86 ± 0.0007 µM | – | > 50 µM | – | –
18 | COc1cc(OC)c(CCNC(=O)c2cn3cc(-c4cc(OC)ccc4OC)nc3s2)c(OC)c1 [OGHL00227] | 2.8 ± 0.08 µM | – | > 50 µM | – | fold increase in selectivity ([8]; relative to the analogue of the same series named in the sentence): 3.5 fold
19 | COc1cc(OC)c(CCNC(=O)c2ccc3nc(-c4cc(OC)ccc4OC)cn3c2)c(OC)c1 [OGHL00231] | 9 µM | 9.06 ± 0.13 µM | > 50 µM | – | –
20 | COc1ccc(OCCCO)cc1-c1cn2cc(-c3nnc(NCCCCc4ccccc4)o3)ccc2n1 [OGHL00236] | – | 6.19 ± 0.4 µM | – | 9.07 ± 0.94 µM | –
21 | COc1cc(OC)c(CCNC(=O)c2cn3cc(-c4cc(OCC#N)ccc4OC)nc3s2)c(OC)c1 [OGHL00238] | 2.67 ± 0.7 µM | – | 2.01 ± 0.46 µM | – | –
22 | COc1ccc(OCC(N)=O)cc1-c1cn2cc(C(=O)NCCc3c(OC)cccc3OC)sc2n1 [OGHL00241] | 2.28 ± 0.04 µM | – | 9.259 ± 0.019 µM | – | –
23 | COc1cc(C(=O)N(C)C)ccc1-c1cc2nccc(-c3ccc4ccncc4c3)c2o1 [OGHL00250] | – | 2.15 ± 0.2 µM | – | > 50 µM | –
24 | N=C(N)c1ccc(OCCCCCOc2ccc(C(=N)N)cc2)cc1 [Pentamidine isethionate, reference compound] | – | – | – | – | activity profile in time-kill assay (trypanocidal or cytostatic) [5]: complete and sustained parasite clearance across all tested concentrations; time of exposure to parasite killing / growth arrest ([5]; time-kill assay): ≤ 24 h
25 | COc1cc([C@@H]2c3cc4c(cc3[C@H](O)[C@H]3COC(=O)[C@H]23)OCO4)cc(OC)c1OC [Podophyllotoxin, reference compound] | – | – | – | – | CC50 at 48 h ([2]; primary screen, DMSO stock solution, 48 hours, read-out: CC50 ± SD (µM) HepG2): 0.031 ± 0.009 µM; CC50 at 48 h ([3]; confirmation screen, powdered form, 48 hours, read-out: CC50 ± SD (µM) Raw): 0.016 ± 0.002 µM; CC50 at 48 h ([4]; confirmation screen, powdered form, 48 hours, read-out: CC50 ± SD (µM) Vero): 0.08 ± 0.005 µM
